Read-outs that look alike come from different tables or passages of the source.
Key:
[1] = target: EGFR double mutation L858R/T790M (H1975 cells) (Homo sapiens (Human), UniProt P00533, L858R/T790M); assay: Phospho-EGFR signaling immunoblot in H1975 cells; format: cell-based; conditions: for EC50: H1975 cells, 1 hr treatment, phospho-EGFR (Y1068); for Ratio WT/mutant (H1975): signaling EC50 WT EGFR / H1975
Experimental: (§1) A431 human epidermoid carcinoma, H1975 human NSCLC and HCC827 human NSCLC adenocarcinoma cells were obtained from the American Type Culture Center (Manassas, Va.). A431 cells were grown in DMEM (Invitrogen, Carlsbad, Calif.) supplemented with 10% FBS (HyClone, South Logan, Utah) and 1% Penicillin-Streptomycin (P/S, Lonza, Walkersville, Md.).
(§2) All primary antibodies were obtained from Cell Signaling (Danvers, Mass.) and used at 1:1000. Secondary antibodies were used at 1:10,000. Goat anti-mouse IgG IRDye 800CW antibody was obtained from LiCor Biosciences (Lincoln, Nebr.) and goat anti-rabbit IgG Alexa Fluor 680 was obtained from Invitrogen.
(§3) Cells were grown in 12-well plates (Corning, Coring, N.Y.) to 90% confluence and then incubated in low-serum (0.1% FBS) media for 16-18 hr. […] A431 cells were then stimulated with 50 ng/ml EGF (Peprotech, Rocky Hill, N.J.) for 15 min. After treatment, cell monolayers were washed with cold PBS (Invitrogen) and immediately lysed by scrapping into 60 uL cold Cell Extraction Buffer (Invitrogen) supplemented with Complete Protease inhibitors (Roche, Indianapolis, Ind.) and PhosphoSTOP (Roche) phosphatase inhibitors.
(§4) Phospho-protein signals were quantitated using Odyssey Infrared Imaging (Li-Cor Biosciences).
(§5) To assess phosphor-EGFR signaling, blots were probed with rabbit anti-Phospho-EGFR (Y1068) and mouse total anti-EGFR antibodies. Phospho-EGFR signal was normalized to total EGFR expression for each sample. […] Normalized data was fitted using a sigmoidal curve analysis program (Graph Pad Prism version 5) with variable Hill slope to determine the EC50 values.
(§6) The compound numbers recited in Table 4 correspond to the compound numbers in Table 1.

[2] = system: H1975 cells (EGFR L858R/T790M); assay: Cell proliferation (CellTiter Glo), H1975 cells
Experimental: (§7) Cells were plated in Growth Media supplemented with 5% FBS and 1% P/S at a density of 3,000 cells per well in 96 well tissue culture plates (Corning). […] Growth inhibition (GI50) values were determined by Graph Pad Prism.

H1975 tumor = H1975 tumor in vivo study; conditions: female nu/nu mice, H1975 subcutaneous, intraperitoneal 25 mg/kg daily for 21 days, determined at 15 days
Experimental: H1975 Tumor In Vivo Study
Female nu/nu mice were implanted with 1×10^7 H1975 tumor cells in 50% Matrigel subcutaneously (0.2 ml injection volume) in the flank. Tumor measurements were recorded three times per week. Tumors were pair matched when they reached an average size of 100-150 mg. Group size was 10 mice. Test compound was administered intraperitoneal, 25 mg/kg daily for 21 days. % Tumor inhibition values were determined at 15 days, the time at which the control group reached a maximum tumor volume. Tumor volume was followed until tumors reached 1500 mm^3 or 60 days.

WT EGFR (A431 cells) = WT EGFR (A431 cells) (Homo sapiens (Human), UniProt P00533); assay: Phospho-EGFR signaling immunoblot in A431 cells (WT EGFR); format: cell-based; conditions: 1 hr treatment, EGF stimulated, phospho-EGFR (Y1068)
Experimental: as §1, §2, §3, §4, §5, §6

[3] = system: HCC827 cells (EGFR delE746-A750); assay: Cell proliferation (CellTiter Glo), HCC827 cells
Experimental: as §7

EGFR (WT) = EGFR (WT) (Homo sapiens (Human), UniProt P00533); assay: Omnia biochemical assay, EGFR-WT active enzyme; conditions: [EGFR-WT]=5 nM, [ATP]=15 uM, 30 min pre-incubation
Experimental: Kinase reactions were started with the addition of 45 μL of the ATP/Tyr-Sox peptide substrate mix and monitored every 71 seconds for 60 minutes at λex360/λem485 in a Synergy^4 plate reader from BioTek (Winooski, Vt.).
The compound numbers correspond to the compound numbers in Table 1.

[4] = target: EGFR Deletion/T790M Mutation (H1975 cells) (Homo sapiens (Human), UniProt P00533, L858R/T790M); assay: Washout experiment in H1975 cells (pEGFR after compound removal); format: cell-based; conditions: 500 nM for 1 hr, at 24 h after compound removal
Experimental: Washout Experiment in H1975 Cells Containing EGFR Deletion/T790M Mutation
Cells were plated in Growth Media supplemented with 10% FBS and 1% P/S at a density of 2.0×10^5 cells per well in 12 well tissue culture plates. Cells were allowed to settle down for 4 hrs and then maintained in low-serum (0.1% FBS) media overnight.
The following morning the media was removed and the cells were treated with 500 nM test compound in low-serum media for 1 hr. The cells were washed free of compound 2× with PBS (Invitrogen). One set of cells were immediately lysed as indicated above as the 0 hr time point. The remaining cells were incubated with complete RPMI-1640 growth media (10% FBS) for 1, 3, 6 and 24 hr. For the first 1 hr, cells were washed 2× with PBS every 30 min. DMSO (0.5%) controls were collected at the 0, 3, 6 and 24 hr time points.

[5] = target: EGFR delE746-A750 deletion mutation (HCC827 cells) (Homo sapiens (Human), UniProt P00533, DEL746-750); assay: Phospho-EGFR signaling immunoblot in HCC827 cells; format: cell-based; conditions: for EC50: HCC827 cells, 1 hr treatment, phospho-EGFR (Y1068); for Ratio WT/mutant (HCC827): signaling EC50 WT EGFR / HCC827
Experimental: as §1, §2, §3, §4, §5, §6

A431 cells (WT EGFR) = assay: Cell proliferation (CellTiter Glo), A431 cells
Experimental: as §7

[6] = proliferation GI50 WT EGFR / H1975
[7] = proliferation GI50 WT EGFR / HCC827

Compound | EC50 [1] | Ratio WT/mutant (H1975) [1] | Ratio WT/mutant (H1975) [2, 6] | % Tumor inhibition (H1975 tumor) | EC50 (WT EGFR (A431 cells)) | Ratio WT/mutant (HCC827) [3, 7] | IC50 (EGFR (WT)) | activity restored by new protein synthesis [4] | EC50 [5] | Ratio WT/mutant (HCC827) [5] | Ratio WT/mutant (H1975) [2] | Ratio WT/mutant (HCC827) [3] | GI50 ([2]; Homo sapiens, NCI-H1975, 72 h, read-out: H1975 GI50 (nM)) | GI50 (A431 cells (WT EGFR); Homo sapiens, A-431, 72 h, read-out: WT EGFR GI50 (nM)) | GI50 ([3]; Homo sapiens, HCC827, 72 h, read-out: HCC827 GI50 (nM)) | GI50 ([2]; read-out: H1975 GI50, H1975 cells, 72 hr) | GI50 (A431 cells (WT EGFR); read-out: WT EGFR GI50, A431 cells, 72 hr) | GI50 ([3]; read-out: HCC827 GI50, HCC827 cells, 72 hr)
C=CC(=O)Nc1cccc(Oc2nc(Nc3ccc(N4CCOCC4)cc3OC)ncc2Cl)c1 [Compound I-5, N-(3-(5-chloro-2-(2-methoxy-4-morpholinophenylamino)pyrimidin-4-yloxy)phenyl)acrylamide] | 10 to 100 nM | >30 | >5 | >33% | > 1000 nM | >20 | 10 to 30 nM | – | – | – | – | – | – | – | – | – | – | –
C=CC(=O)Nc1cccc(Nc2nc(Nc3ccc(N4CCOCC4)cc3OC)ncc2C(F)(F)F)c1 [Compound I-2, N-(3-(2-(2-methoxy-4-morpholinophenylamino)-5-(trifluoromethyl)pyrimidin-4-ylamino)phenyl)acrylamide] | 10 to 100 nM | >50 | >20 | >66% | > 1000 nM | >40 | 10 to 30 nM | 40-60% | – | – | – | – | – | – | – | – | – | –
C=CC(=O)Nc1cccc(Oc2nc(Nc3ccc(N4CCN(C(=O)OC(C)(C)C)CC4)cc3OC)ncc2Cl)c1 [Compound I-46, tert-butyl 4-(4-(4-(3-acrylamidophenoxy)-5-chloropyrimidin-2-ylamino)-3-methoxyphenyl)piperazine-1-carboxylate] | 100 to 500 nM | >10 | – | – | > 1000 nM | – | 100 to 300 nM | – | < 10 nM | >50 | >1 | >10 | – | – | – | – | – | –
C=CC(=O)Nc1cccc(Nc2nc(Nc3ccc(N4CCN(C(C)=O)CC4)cc3OC)ncc2C(F)(F)F)c1 [Compound I-4, N-(3-(2-(4-(4-acetylpiperazin-1-yl)-2-methoxyphenylamino)-5-(trifluoromethyl)pyrimidin-4-ylamino)phenyl)acrylamide] | – | – | – | >66% | – | – | – | 40-60% | – | – | – | – | – | – | – | – | – | –
C=CC(=O)Nc1cccc(Nc2nc(Nc3ccc(N4CCOCC4)cc3OC(F)F)ncc2C(F)(F)F)c1 [Compound I-14, N-(3-(2-(2-(difluoromethoxy)-4-morpholinophenylamino)-5-(trifluoromethyl)pyrimidin-4-ylamino)phenyl)acrylamide] | 10 to 100 nM | >15 | >5 | – | 500 to 1000 nM | >10 | 10 to 30 nM | – | 10 to 100 nM | >15 | – | – | – | – | – | – | – | –
C=CC(=O)Nc1cccc(Nc2nc(Nc3ccc(N4CCN(S(C)(=O)=O)CC4)cc3OC)ncc2C(F)(F)F)c1 [Compound I-17, N-(3-(2-(2-methoxy-4-(4-(methylsulfonyl)piperazin-1-yl)phenylamino)-5-(trifluoromethyl)pyrimidin-4-ylamino)phenyl)acrylamide] | 10 to 100 nM | >30 | >10 | – | > 1000 nM | >15 | 10 to 30 nM | – | 100 to 500 nM | >5 | – | – | – | – | – | – | – | –
C=CC(=O)Nc1cccc(Oc2nc(Nc3ccc(N4CCOCC4)cc3OC)ncc2C(F)(F)F)c1 [Compound I-1, N-(3-(2-(2-methoxy-4-morpholinophenylamino)-5-(trifluoromethyl)pyrimidin-4-yloxy)phenyl)acrylamide] | 10 to 100 nM | >50 | >15 | >66% | > 1000 nM | >15 | 30 to 100 nM | – | – | – | – | – | – | – | – | – | – | –
C=CC(=O)Nc1cccc(Oc2nc(Nc3ccc(N4CCN(C(C)=O)CC4)cc3OC)ncc2C(F)(F)F)c1 [Compound I-10, N-(3-(2-(4-(4-acetylpiperazin-1-yl)-2-methoxyphenylamino)-5-(trifluoromethyl)pyrimidin-4-yloxy)phenyl)acrylamide] | – | – | – | – | – | – | 1 to 10 nM | – | – | – | >1 | >20 | 500 to 1000 nM | > 1000 nM | 100 to 500 nM | – | – | –
N-(3-(5-chloro-2-(2-methoxy-4-morpholinophenylamino)pyrimidin-4-ylamino)phenyl)acrylamide [Compound I-15] | – | – | >1 | – | – | >10 | 30 to 100 nM | – | – | – | – | – | – | – | – | 500 to 1000 nM | > 1000 nM | 100 to 500 nM
